Source: article PMC2820545, “Mechanistic Characterization and Molecular Modeling of Hepatitis B Virus Polymerase Resistance to Entecavir” (PLoS ONE, 2010)
“And” between values parts separate entries of the source, which are not always exact repeats. Equal values may be shown once. Read-outs that look alike come from different tables or passages of the source.

How the values were obtained:
[1] = target: ETVr HBV polymerases (ETVr signature substitutions in a LVDr background); experiment: In vitro HBV polymerase assay, ETVr enzymes as a group; format: biochemical, hepatitis B virus
Text: (§1) To provide the data in Tables 1 & 2, intracellular HBV nucleocapsids were isolated from HBV transfected HepG2 cells and used in endogenous polymerase assays (EPA), exactly as previously described in detail. Essentially, clarified, detergent and nuclease-treated HBV-transfected cell lysates were centrifugally sedimented through a 25% wt/vol sucrose cushion. Sedimented nucleocapsids were used in polymerase reactions with [33P]-labeled dNTPs and TCA-precipitable radioactivity was used as an indication of the HBV polymerase activity, as described.
(§2) In order to increase the activity of the EPA reactions, we used nucleocapsids from cells treated with phosphonoformic acid (foscarnet, PFA; Sigma) during culture. […] PFA inhibits synthesis of all HBV DNA forms and both strands of HBV DNA, but not priming, and has a cell culture EC50 of approximately 5 mM for HBV [48].
(§3) The HBV polymerase dNTP Km values were determined from similar assays where the concentration of dNTP was serially diluted from 1000 nM to 0.3 nM. All other dNTPs were used at a fixed concentration equal to the highest test dNTP concentration with one-tenth of the TTP in the form of [α^33P] TTP (3000 Ci/mmol; PerkinElmer, Boston, MA). The apparent Km values were obtained from Lineweaver-Burke plots of the data generated by GraphPad PRISM™ software version 3.0 (San Diego, CA). The Ki values were calculated using the Cheng-Prusoff equation: Ki = IC50/(1+[S]/Km). The enzyme concentration within HBV nucleocapsid preparations was found by determining the level of covalently-linked HBV DNA using quantitative real-time PCR [9] and converting to genome equivalents [1 pg double stranded HBV DNA = 3×10^5 genome equivalents [34]]. The primers were positioned near the 5′ end of minus strand DNA in an attempt to measure all enzymatically active molecules.

[2] = target: T1, LVDr + S202G HBV polymerase (Hepatitis B virus genotype D subtype ayw, UniProt P03156, L515M/M539V/S537G); experiment: In vitro HBV polymerase assay (endogenous polymerase assay with nucleocapsids); format: biochemical; conditions: for IC50: In vitro polymerase
T1 construct: intracellular HBV nucleocapsids were isolated from HBV transfected HepG2 cells and used in endogenous polymerase assays; expressed in transfected cells; host or cells: HepG2 cells transfected with a mutated HBV expression plasmid
T1 sequence (P03156 whole entry L515M/S537G/M539V): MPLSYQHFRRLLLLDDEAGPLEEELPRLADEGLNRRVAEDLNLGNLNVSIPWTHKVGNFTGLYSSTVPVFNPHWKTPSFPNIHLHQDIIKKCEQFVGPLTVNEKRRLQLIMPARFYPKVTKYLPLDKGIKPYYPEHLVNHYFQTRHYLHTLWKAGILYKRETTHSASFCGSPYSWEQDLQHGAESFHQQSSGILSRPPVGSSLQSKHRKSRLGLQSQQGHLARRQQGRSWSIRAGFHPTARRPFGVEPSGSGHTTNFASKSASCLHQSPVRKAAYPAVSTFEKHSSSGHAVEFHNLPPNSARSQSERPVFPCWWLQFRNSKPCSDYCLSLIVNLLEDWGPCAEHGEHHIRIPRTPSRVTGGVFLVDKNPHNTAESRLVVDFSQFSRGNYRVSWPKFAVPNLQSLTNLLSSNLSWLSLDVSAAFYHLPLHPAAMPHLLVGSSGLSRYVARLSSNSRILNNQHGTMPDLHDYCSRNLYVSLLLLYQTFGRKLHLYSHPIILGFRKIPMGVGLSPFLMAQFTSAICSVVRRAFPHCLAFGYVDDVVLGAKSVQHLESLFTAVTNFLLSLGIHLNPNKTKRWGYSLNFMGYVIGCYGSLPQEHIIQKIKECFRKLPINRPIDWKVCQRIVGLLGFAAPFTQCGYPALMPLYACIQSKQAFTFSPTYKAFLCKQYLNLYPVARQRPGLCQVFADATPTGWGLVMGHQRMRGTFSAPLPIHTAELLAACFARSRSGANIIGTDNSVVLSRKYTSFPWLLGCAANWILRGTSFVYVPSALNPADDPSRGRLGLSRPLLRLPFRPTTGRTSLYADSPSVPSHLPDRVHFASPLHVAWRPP
Text: as §1, §2, §3

[3] = target: T2, LVDr + M250V HBV polymerase (Hepatitis B virus genotype D subtype ayw, UniProt P03156, L515M/M539V/M585V); experiment: as above; format: biochemical; conditions: for IC50: In vitro polymerase
T2 construct: intracellular HBV nucleocapsids were isolated from HBV transfected HepG2 cells and used in endogenous polymerase assays; expressed in transfected cells; host or cells: HepG2 cells transfected with a mutated HBV expression plasmid
T2 sequence (P03156 whole entry L515M/M539V/M585V): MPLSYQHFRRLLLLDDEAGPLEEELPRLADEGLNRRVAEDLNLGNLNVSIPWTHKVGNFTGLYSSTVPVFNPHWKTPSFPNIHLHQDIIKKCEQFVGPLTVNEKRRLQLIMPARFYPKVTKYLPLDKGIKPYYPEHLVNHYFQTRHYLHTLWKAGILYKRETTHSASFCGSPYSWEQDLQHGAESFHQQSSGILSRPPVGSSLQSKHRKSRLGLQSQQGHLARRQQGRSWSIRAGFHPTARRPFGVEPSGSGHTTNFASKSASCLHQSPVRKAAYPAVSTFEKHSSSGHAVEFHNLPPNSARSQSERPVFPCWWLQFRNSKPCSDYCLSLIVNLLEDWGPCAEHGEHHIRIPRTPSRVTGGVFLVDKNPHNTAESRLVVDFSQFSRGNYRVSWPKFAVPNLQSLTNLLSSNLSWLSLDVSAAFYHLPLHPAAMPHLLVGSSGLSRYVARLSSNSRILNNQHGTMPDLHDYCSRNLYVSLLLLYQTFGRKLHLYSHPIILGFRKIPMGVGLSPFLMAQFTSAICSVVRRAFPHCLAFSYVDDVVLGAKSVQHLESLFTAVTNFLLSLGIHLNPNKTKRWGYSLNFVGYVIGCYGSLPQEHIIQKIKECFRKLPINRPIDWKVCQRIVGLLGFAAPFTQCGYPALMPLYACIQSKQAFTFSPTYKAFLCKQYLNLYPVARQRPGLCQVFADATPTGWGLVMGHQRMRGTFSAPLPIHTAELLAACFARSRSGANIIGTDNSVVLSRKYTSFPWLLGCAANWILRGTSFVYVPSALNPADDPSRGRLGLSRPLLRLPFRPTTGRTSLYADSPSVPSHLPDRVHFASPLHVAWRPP
Text: as §1, §2, §3

[4] = target: T3, LVDr + T184G + S202I HBV polymerase (Hepatitis B virus genotype D subtype ayw, UniProt P03156, L515M/M539V/S537I/T519G); experiment: as above; format: biochemical; conditions: for IC50: In vitro polymerase
T3 construct: intracellular HBV nucleocapsids were isolated from HBV transfected HepG2 cells and used in endogenous polymerase assays; expressed in transfected cells; host or cells: HepG2 cells transfected with an HBV expression plasmid
T3 sequence (P03156 whole entry L515M/T519G/S537I/M539V): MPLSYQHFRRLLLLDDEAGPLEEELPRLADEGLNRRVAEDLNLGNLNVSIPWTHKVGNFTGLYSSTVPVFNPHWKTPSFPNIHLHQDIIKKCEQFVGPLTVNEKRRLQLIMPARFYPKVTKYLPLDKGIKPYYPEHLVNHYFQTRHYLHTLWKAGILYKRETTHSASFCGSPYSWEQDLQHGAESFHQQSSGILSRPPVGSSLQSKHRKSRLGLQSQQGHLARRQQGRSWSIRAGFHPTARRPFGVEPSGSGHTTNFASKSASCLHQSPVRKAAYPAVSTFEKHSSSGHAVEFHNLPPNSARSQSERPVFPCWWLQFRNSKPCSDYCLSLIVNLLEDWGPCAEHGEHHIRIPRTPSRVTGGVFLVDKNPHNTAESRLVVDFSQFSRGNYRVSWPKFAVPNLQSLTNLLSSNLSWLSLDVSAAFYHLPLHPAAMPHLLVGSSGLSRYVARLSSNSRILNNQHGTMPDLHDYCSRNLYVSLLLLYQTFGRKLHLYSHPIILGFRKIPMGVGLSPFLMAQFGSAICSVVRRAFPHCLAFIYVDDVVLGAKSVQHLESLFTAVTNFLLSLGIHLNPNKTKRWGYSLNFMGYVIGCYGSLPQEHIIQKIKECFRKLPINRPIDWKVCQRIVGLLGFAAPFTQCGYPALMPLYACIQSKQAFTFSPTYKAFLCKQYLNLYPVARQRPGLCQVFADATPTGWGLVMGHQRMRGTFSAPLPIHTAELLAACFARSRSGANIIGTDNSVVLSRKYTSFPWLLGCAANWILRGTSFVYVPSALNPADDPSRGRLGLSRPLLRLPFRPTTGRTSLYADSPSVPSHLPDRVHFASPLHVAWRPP
Text: as §1, §2, §3

[5] = target: T4, LVDr + T184L HBV polymerase (Hepatitis B virus genotype D subtype ayw, UniProt P03156, L515M/M539V/T519L); experiment: as above; format: biochemical
T4 construct: intracellular HBV nucleocapsids were isolated from HBV transfected HepG2 cells and used in endogenous polymerase assays; expressed in transfected cells; host or cells: HepG2 cells transfected with a mutated HBV expression plasmid
T4 sequence (P03156 whole entry L515M/T519L/M539V): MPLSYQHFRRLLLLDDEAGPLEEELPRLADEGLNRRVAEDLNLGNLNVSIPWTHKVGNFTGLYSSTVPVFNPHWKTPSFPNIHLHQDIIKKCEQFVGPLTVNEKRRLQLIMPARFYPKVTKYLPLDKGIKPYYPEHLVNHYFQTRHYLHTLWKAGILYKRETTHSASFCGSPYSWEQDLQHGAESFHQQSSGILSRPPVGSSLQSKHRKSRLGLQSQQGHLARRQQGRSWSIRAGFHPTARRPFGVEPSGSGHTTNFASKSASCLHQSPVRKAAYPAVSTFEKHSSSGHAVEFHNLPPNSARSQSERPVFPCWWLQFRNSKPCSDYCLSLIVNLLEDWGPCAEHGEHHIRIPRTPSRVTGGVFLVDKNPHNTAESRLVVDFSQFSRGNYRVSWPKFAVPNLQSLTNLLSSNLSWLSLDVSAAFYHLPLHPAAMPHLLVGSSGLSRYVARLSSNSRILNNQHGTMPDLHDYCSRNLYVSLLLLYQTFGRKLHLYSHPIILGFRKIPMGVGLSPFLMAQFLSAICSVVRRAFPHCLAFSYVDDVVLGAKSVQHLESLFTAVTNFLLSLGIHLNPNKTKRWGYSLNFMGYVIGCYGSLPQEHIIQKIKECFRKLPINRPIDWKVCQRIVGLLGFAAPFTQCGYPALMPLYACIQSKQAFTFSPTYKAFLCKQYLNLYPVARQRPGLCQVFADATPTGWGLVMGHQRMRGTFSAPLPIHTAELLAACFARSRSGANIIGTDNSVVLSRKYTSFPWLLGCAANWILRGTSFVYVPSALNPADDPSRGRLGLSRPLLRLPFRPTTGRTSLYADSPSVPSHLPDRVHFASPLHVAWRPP
Text: as §1, §2, §3

[6] = target: T5, LVDr L180M + M204V HBV polymerase (Hepatitis B virus genotype D subtype ayw, UniProt P03156, L515M/M539V); experiment: as above; format: biochemical; conditions: for IC50: In vitro polymerase, LVDr L180M + M204V
T5 construct: intracellular HBV nucleocapsids were isolated from HBV transfected HepG2 cells and used in endogenous polymerase assays; expressed in transfected cells; host or cells: HepG2 cells transfected with a mutated HBV expression plasmid
T5 sequence (P03156 whole entry L515M/M539V): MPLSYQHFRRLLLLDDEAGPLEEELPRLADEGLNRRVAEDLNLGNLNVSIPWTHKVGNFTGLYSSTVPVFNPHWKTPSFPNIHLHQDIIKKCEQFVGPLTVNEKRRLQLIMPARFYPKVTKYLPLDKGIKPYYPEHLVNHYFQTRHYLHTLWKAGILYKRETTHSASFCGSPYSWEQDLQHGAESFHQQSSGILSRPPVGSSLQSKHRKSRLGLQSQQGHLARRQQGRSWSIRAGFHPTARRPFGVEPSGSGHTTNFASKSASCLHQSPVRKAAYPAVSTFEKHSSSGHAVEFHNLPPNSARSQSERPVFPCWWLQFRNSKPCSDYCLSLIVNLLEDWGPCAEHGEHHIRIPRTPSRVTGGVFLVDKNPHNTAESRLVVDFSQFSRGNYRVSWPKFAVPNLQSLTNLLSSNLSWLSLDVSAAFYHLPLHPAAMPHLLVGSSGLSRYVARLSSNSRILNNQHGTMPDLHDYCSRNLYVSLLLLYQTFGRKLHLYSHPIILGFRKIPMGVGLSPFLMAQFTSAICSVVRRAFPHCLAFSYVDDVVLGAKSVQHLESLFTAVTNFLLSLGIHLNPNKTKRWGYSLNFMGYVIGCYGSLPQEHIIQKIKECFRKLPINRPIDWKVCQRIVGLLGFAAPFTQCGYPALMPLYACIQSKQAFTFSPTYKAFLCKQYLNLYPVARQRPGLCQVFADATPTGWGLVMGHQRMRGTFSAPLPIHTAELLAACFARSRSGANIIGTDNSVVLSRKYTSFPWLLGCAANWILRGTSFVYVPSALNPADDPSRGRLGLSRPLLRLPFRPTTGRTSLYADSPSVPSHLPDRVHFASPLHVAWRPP
Text: as §1, §2, §3

Wildtype HBV polymerase = target: T6, Wildtype HBV polymerase (Hepatitis B virus genotype D subtype ayw, UniProt P03156); experiment: as above; format: biochemical
T6 construct: intracellular HBV nucleocapsids were isolated from HBV transfected HepG2 cells and used in endogenous polymerase assays; expressed in transfected cells; host or cells: HepG2 cells transfected with pCMV-HBV
T6 sequence (P03156 whole entry): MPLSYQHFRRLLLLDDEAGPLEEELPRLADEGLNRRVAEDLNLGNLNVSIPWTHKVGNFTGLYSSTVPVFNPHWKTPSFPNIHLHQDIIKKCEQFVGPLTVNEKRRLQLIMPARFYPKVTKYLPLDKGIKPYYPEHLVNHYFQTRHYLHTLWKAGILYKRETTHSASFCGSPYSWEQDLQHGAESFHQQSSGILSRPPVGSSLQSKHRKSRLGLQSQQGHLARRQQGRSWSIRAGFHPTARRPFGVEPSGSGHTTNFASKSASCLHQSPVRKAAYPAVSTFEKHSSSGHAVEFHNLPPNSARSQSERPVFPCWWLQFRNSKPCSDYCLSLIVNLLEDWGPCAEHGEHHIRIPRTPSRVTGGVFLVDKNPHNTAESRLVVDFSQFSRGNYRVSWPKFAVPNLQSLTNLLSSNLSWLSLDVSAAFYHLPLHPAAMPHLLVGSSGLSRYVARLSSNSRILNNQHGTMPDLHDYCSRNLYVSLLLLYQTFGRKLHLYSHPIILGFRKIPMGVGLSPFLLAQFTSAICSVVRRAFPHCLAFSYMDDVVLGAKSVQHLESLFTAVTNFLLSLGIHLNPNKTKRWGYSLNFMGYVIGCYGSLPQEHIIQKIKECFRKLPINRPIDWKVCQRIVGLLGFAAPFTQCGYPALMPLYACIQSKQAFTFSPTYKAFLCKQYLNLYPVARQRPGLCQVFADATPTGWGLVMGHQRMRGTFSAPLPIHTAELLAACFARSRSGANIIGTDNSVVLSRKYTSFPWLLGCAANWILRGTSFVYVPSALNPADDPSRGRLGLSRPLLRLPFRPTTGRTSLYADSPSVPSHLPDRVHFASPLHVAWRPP
Text: as §1, §2, §3

Wildtype HBV = experiment: HBV cell culture susceptibility (HBV-transfected HepG2 cells); format: cell-based; conditions: Hepatitis B virus, wildtype HBV in culture, read-out: LVD EC50
Procedure: (§4) HepG2 human hepatoma cells (American Type Culture Collection) were maintained as described. The laboratory clone of HBV was the genotype D ayw serotype clone kindly provided by Dr. Steven Goff in the plasmid pCMV-HBV [41]. Plasmids expressing HBV RT with resistance substitutions were prepared using QuikChange® site-directed mutagenesis (Stratagene, LaJolla, CA).
(§5) HepG2 cell culture susceptibility assays were performed in cells transfected with HBV expression plasmids and cultured in the presence of a titration of antiviral compounds, as described in detail elsewhere. The levels of replicated, released HBV virions was measured at day five through immunocapture of detergent released nucleocapsids with anti-HBV core Ab and quantification of encapsidated HBV DNA [5]. Data were plotted as percent inhibition and EC50 values calculated as the drug concentration where 50% inhibition of extracellular HBV occurred.

[7] = system: singly M250V substituted HBV; experiment: as above; format: cell-based, hepatitis B virus
Text: The M250V substituted HBV RT in the absence of LVDr changes was constructed and tested for susceptibility to LVD, an obligate chain terminator which should not be impacted by the mechanism that could potentially affect ETV chain termination.
as §4, §5

HBV = system: HBV; design: method as in PMID 7601429; conditions: read-out: cell culture EC50; cited from earlier work
[8] = system: HBV clones with ETVr signature substitutions in a LVDr background; conditions: cited from earlier work
[9] = fold change from wildtype value, LVDr + S202G
[10] = fold change from wildtype value, LVDr + M250V
[11] = fold change from wildtype value, LVDr + T184G + S202I
[12] = fold change from wildtype value, LVDr + T184L
[13] = fold change from wildtype value, LVDr M204V+L180M
[14] = fold change from wildtype value, Wildtype (WT)

SMILES: C=C1[C@H](COP(=O)(O)OP(=O)(O)OP(=O)(O)O)[C@@H](O)C[C@@H]1n1cnc2c(=O)[nH]c(N)nc21 [ETV-TP, ETV-triphosphate]
- Ki/dGTP Km ratio, change from the wildtype ([1]; ETVr enzymes): more than 600 fold
- level of ETVr in vitro ([1]; ETVr signature substitutions in a LVDr background, in vitro polymerase): > 400 fold
- Ki/Km ([2]; ETV-TP Ki / dGTP Km ratio, LVDr + S202G): 69.9
- IC50 ([2]; LVDr + S202G, read-out: ETV-TP IC50, Average ± SD (Range)): 0.258 ± 0.0255 µM
- Ki ([2]; calculated with Cheng-Prusoff equation, LVDr + S202G polymerase, read-out: Ki (ETV-TP)): 0.147 µM
- Ki (Fold WT) [2, 9]: 366.8 fold
- Ki/Km (Fold WT) [2, 9]: 873.8 fold
- Ki/Km ([3]; ETV-TP Ki / dGTP Km ratio, LVDr + M250V): 52.7
- IC50 ([3]; LVDr + M250V, read-out: ETV-TP IC50, Average ± SD (Range)): 0.229 ± 0.0495 µM
- Ki ([3]; calculated with Cheng-Prusoff equation, LVDr + M250V polymerase, read-out: Ki (ETV-TP)): 0.121 µM
- Ki (Fold WT) [3, 10]: 303.0 fold
- Ki/Km (Fold WT) [3, 10]: 658.8 fold
- Ki/Km ([4]; ETV-TP Ki / dGTP Km ratio, LVDr + T184G + S202I): 221.6
- IC50 ([4]; LVDr + T184G + S202I, read-out: ETV-TP IC50, Average ± SD (Range)): 0.636 ± 0.019 µM
- Ki ([4]; calculated with Cheng-Prusoff equation, LVDr + T184G + S202I polymerase, read-out: Ki (ETV-TP)): 0.155 µM
- Ki (Fold WT) [4, 11]: 387.8 fold
- Ki/Km (Fold WT) [4, 11]: 2770.0 fold
- Ki/Km ([5]; ETV-TP Ki / dGTP Km ratio, LVDr + T184L): 118.2
- IC50 ([5]; In vitro polymerase, LVDr + T184L, read-out: ETV-TP IC50, Average ± SD (Range)): 0.373 ± 0.143 µM
- Ki ([5]; calculated with Cheng-Prusoff equation, LVDr + T184L polymerase, read-out: Ki (ETV-TP)): 0.225 µM
- Ki (Fold WT) [5, 12]: 561.3 fold
- Ki/Km (Fold WT) [5, 12]: 1477.5 fold
- Ki/Km ([6]; ETV-TP Ki / dGTP Km ratio, LVDr M204V+L180M): 3.5
- IC50 ([6]; read-out: ETV-TP IC50, Average ± SD (Range)): 0.0271 ± 0.0056 µM
- Ki ([6]; calculated with Cheng-Prusoff equation, LVDr M204V+L180M polymerase, read-out: Ki (ETV-TP)): 0.0123 µM
- Ki (Fold WT) [6, 13]: 30 fold and 30.8 fold
- Ki/Km (Fold WT) [6, 13]: 43.8 fold
- IC50 (Wildtype HBV polymerase; In vitro polymerase, Wildtype, read-out: ETV-TP IC50, Average ± SD (Range)): 0.0005 ± 0.0001 µM
- Ki (Wildtype HBV polymerase; calculated with Cheng-Prusoff equation, Wildtype (WT) polymerase, read-out: Ki (ETV-TP)): 0.0004 µM
- Ki (Fold WT) (Wildtype HBV polymerase; [14]): 1 fold
- Ki/Km (Fold WT) (Wildtype HBV polymerase; [14]): 1 fold

SMILES: Nc1ccn([C@@H]2CS[C@H](CO)O2)c(=O)n1 [LVD, lamivudine]
- EC50 (Wildtype HBV): 0.794 µM
- EC50 ([7]; Hepatitis B virus, HepG2, M250V HBV (no LVDr changes) in culture, read-out: LVD EC50): 0.116 µM
- hypersensitivity to LVD in culture ([7]; {}): 7 fold

SMILES: O=C(O)P(=O)(O)O [PFA, phosphonoformic acid]
- EC50 (HBV): ~5000 µM

SMILES: Nc1ncnc2c1ncn2CCOCP(=O)(O)O [adefovir]
- susceptibility of ETVr HBV in cell culture [8]: does not show reduced susceptibility

SMILES: Nc1nc2c(ncn2[C@H]2C[C@H](O)[C@@H](COP(=O)(O)OP(=O)(O)OP(=O)(O)O)O2)c(=O)[nH]1 [dGTP]
- change of dGTP Km by ETVr changes ([1]; ETVr enzymes except the quadruple-substituted RT): 2.2- to 2.6 fold
- Km ([2]; apparent Km, LVDr + S202G polymerase, read-out: dGTP Km): 2.1 ± 0.1 nM
- dGTP Km (Fold WT) [2, 9]: 2.4 fold
- Km ([3]; apparent Km, LVDr + M250V polymerase, read-out: dGTP Km): 2.3 ± 0.5 nM
- dGTP Km (Fold WT) [3, 10]: 2.2 fold
- Km ([4]; apparent Km, LVDr + T184G + S202I polymerase, read-out: dGTP Km): 0.7 ± 0.1 nM
- Km ([5]; apparent Km, LVDr + T184L polymerase, read-out: dGTP Km): 1.9 ± 0.6 nM
- dGTP Km (Fold WT) [5, 12]: 2.6 fold
- Km ([6]; apparent Km, LVDr M204V+L180M polymerase, read-out: dGTP Km): 3.5 ± 0.4 nM
- Km (Wildtype HBV polymerase; apparent Km, Wildtype (WT) polymerase, read-out: dGTP Km): 5 ± 0.5 nM
- dGTP Km (Fold WT) (Wildtype HBV polymerase; [14]): 1 fold

SMILES: Nc1nc2c(ncn2[C@H]2CC[C@@H](COP(=O)(O)OP(=O)(O)OP(=O)(O)O)O2)c(=O)[nH]1 [ddGTP, 2′,3′-dideoxyguanosine-5′-triphosphate]
- ddGTP IC50 of ETVr isolates relative to background ([1]; ETVr isolates, in vitro polymerase): approximately two-fold above background
- IC50 ([2]; LVDr + S202G, read-out: ddGTP IC50, Average ± SD (Range)): 0.125 ± 0.0088 µM
- IC50 ([3]; LVDr + M250V, read-out: ddGTP IC50, Average ± SD (Range)): 0.154 ± 0.0514 µM
- IC50 ([4]; LVDr + T184G + S202I, read-out: ddGTP IC50, Average ± SD (Range)): 0.188 ± 0.0067 µM
- IC50 ([6]; read-out: ddGTP IC50, Average ± SD (Range)): 0.138 ± 0.01 µM
- IC50 (Wildtype HBV polymerase): 0.0876 µM

SMILES: C[C@H](Cn1cnc2c(N)ncnc21)OCP(=O)(O)O [tenofovir]
- susceptibility of ETVr HBV in cell culture [8]: does not show reduced susceptibility
